In ChEMBL document CHEMBL4665643 (Bioorg Med Chem Lett, 2019):

What was measured:
[1] = target: Tyrosine-protein kinase JAK2 (Homo sapiens, UniProt O60674)
Description: Inhibition of recombinant human JAK2 (812 to 1132 residues) expressed in insect cells using Y1-B as substrate incubated for 30 mins by microfluidic mobility shift assay

[2] = target: T1, Tyrosine-protein kinase JAK1 (Homo sapiens, UniProt P23458); test: biochemical
Description: Inhibition of recombinant human JAK1 (854 to 1154 residues) expressed in insect cells using Y1-B as substrate incubated for 30 mins by microfluidic mobility shift assay

Janus Kinase (JAK) = Janus Kinase (JAK) (Homo sapiens, UniProt P52333+P23458+O60674+P29597); details: beas-2b
Description: Inhibition of JAK in human BEAS-2B cells assessed as reduction in IL13-induced STAT6 phosphorylation incubated for 1 hr followed by IL13 addition and measured after 15 mins by immunofluorescence assay

[3] = Metabolic stability in human liver microsomes assessed as intrinsic clearance at 1 uM measured upto 60 mins by LC-MS/MS analysis; type: ADME, Microsome; details: read-out: CLH
[4] = Lipophilicity, logD of compound; type: physicochemical; details: octanol/water
LRRK2 = LRRK2 (Homo sapiens, UniProt Q5S007); test: Inhibition of recombinant human GST-tagged LRRK2 (970 to 2527 residues) expressed in baculovirus expression system using LRRKtide as substrate at 0.1 uM incubated for 60 mins by Adapta assay relative to control; details: probe LRRKtide
in vitro [5] = details: dog, MDCK
Description: Efflux ratio of apparent permeability basolateral to apical over apical to basolateral side in MDCK cells at 10 uM incubated upto 180 mins by LC/MS-MS analysis

in vitro [6] = details: dog, MDCK; remark: listed apart in the source
Description: Apparent permeability across apical to basolateral side in MDCK cells at 10 uM incubated upto 180 mins by LC/MS-MS analysis

[7] = target: Leucine-rich repeat serine/threonine-protein kinase 2 (Homo sapiens, UniProt Q5S007); test: Inhibition of recombinant human GST-tagged LRRK2 (970 to 2527 residues) expressed in baculovirus expression system using LRRKtide as substrate incubated for 60 mins by Adapta assay
[8] = target: T1, Tyrosine-protein kinase JAK1

Chain of LRRK2 (Q5S007 whole entry, the tested form may be a part): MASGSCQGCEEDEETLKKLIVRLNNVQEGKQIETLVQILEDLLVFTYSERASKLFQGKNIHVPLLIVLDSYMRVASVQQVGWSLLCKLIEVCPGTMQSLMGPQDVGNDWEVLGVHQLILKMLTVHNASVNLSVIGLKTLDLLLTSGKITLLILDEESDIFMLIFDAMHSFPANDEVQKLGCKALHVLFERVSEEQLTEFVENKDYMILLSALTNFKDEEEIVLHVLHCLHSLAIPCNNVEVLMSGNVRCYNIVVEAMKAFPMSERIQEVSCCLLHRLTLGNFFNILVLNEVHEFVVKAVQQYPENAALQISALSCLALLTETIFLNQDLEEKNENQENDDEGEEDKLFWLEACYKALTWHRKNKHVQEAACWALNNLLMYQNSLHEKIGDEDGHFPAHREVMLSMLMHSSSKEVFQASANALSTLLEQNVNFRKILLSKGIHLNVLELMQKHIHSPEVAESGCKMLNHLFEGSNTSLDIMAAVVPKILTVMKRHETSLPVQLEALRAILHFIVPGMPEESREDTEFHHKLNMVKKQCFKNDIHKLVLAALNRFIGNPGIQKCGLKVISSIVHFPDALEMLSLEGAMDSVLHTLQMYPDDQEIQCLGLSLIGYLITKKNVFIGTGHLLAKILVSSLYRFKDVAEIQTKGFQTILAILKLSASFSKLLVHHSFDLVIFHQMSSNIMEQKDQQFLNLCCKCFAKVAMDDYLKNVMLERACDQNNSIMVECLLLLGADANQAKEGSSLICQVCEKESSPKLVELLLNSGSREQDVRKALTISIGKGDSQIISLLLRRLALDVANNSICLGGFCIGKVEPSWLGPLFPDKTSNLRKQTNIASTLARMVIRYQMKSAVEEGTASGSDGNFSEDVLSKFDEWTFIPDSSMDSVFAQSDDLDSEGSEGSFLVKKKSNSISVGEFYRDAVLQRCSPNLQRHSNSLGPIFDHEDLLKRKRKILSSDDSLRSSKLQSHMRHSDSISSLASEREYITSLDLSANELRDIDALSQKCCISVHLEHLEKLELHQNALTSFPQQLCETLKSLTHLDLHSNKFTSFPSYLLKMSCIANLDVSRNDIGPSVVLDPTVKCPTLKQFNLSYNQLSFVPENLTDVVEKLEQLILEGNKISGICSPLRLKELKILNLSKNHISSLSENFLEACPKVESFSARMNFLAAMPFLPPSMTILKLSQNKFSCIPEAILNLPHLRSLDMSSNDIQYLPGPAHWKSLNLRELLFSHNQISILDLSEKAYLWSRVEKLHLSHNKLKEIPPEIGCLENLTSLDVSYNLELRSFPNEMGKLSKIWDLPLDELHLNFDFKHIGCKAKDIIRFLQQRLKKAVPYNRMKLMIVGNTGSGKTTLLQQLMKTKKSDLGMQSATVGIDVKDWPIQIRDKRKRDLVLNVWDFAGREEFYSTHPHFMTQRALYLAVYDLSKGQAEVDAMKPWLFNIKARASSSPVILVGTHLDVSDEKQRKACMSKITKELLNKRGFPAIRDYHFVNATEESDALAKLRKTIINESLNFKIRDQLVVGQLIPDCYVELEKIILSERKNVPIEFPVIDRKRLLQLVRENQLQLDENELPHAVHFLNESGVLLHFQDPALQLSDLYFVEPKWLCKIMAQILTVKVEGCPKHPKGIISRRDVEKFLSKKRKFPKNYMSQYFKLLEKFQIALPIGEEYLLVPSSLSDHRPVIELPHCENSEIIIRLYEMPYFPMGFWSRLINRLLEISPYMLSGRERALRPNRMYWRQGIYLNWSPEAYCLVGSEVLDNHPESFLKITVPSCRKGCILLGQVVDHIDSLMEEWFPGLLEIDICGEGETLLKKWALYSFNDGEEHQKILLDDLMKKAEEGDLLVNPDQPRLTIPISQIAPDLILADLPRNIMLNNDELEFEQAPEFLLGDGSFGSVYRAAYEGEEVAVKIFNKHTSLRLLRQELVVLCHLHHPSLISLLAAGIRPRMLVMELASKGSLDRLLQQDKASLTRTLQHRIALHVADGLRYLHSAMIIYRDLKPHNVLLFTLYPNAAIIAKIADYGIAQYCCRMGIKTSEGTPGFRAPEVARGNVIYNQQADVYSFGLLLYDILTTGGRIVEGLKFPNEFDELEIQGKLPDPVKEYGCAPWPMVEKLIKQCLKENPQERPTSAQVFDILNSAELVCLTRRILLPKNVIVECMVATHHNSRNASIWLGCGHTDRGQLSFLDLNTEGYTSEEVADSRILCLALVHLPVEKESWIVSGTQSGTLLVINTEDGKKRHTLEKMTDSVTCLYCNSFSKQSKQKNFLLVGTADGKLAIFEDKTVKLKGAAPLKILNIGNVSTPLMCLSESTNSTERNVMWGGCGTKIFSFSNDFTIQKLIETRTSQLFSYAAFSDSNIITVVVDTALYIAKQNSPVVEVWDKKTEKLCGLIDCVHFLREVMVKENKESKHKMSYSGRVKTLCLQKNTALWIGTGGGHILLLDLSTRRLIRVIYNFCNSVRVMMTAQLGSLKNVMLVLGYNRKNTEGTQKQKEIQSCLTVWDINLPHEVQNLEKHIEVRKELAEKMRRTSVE
Chain of Tyrosine-protein kinase JAK2 (O60674 whole entry): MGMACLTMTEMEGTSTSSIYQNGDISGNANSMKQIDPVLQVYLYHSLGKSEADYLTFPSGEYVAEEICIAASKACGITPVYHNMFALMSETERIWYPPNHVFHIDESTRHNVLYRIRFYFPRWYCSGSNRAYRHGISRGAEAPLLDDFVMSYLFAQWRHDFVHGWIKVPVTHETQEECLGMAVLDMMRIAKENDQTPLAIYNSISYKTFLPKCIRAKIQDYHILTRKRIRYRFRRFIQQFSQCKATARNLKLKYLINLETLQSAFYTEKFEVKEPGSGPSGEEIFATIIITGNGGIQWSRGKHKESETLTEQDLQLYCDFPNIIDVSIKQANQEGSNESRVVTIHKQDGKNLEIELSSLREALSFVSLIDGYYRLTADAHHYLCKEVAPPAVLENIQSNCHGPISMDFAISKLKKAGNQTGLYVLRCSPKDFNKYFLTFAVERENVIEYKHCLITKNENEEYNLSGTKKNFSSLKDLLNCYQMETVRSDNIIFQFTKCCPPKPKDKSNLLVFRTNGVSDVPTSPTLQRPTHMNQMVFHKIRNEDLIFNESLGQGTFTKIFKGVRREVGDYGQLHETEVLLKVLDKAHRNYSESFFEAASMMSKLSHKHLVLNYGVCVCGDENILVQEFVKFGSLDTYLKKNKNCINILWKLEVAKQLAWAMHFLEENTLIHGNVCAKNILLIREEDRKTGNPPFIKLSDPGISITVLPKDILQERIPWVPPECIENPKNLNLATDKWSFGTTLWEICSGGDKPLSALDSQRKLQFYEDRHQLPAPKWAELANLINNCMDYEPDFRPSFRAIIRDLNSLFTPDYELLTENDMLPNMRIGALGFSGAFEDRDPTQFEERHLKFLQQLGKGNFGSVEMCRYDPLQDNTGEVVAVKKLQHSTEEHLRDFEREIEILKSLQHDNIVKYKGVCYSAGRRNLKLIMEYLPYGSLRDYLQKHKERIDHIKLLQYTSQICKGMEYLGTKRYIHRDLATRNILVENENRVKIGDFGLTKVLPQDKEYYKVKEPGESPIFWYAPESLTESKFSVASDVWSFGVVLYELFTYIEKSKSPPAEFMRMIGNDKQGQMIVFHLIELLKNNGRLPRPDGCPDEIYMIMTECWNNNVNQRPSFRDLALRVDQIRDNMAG
T1 sequence (P23458 whole entry): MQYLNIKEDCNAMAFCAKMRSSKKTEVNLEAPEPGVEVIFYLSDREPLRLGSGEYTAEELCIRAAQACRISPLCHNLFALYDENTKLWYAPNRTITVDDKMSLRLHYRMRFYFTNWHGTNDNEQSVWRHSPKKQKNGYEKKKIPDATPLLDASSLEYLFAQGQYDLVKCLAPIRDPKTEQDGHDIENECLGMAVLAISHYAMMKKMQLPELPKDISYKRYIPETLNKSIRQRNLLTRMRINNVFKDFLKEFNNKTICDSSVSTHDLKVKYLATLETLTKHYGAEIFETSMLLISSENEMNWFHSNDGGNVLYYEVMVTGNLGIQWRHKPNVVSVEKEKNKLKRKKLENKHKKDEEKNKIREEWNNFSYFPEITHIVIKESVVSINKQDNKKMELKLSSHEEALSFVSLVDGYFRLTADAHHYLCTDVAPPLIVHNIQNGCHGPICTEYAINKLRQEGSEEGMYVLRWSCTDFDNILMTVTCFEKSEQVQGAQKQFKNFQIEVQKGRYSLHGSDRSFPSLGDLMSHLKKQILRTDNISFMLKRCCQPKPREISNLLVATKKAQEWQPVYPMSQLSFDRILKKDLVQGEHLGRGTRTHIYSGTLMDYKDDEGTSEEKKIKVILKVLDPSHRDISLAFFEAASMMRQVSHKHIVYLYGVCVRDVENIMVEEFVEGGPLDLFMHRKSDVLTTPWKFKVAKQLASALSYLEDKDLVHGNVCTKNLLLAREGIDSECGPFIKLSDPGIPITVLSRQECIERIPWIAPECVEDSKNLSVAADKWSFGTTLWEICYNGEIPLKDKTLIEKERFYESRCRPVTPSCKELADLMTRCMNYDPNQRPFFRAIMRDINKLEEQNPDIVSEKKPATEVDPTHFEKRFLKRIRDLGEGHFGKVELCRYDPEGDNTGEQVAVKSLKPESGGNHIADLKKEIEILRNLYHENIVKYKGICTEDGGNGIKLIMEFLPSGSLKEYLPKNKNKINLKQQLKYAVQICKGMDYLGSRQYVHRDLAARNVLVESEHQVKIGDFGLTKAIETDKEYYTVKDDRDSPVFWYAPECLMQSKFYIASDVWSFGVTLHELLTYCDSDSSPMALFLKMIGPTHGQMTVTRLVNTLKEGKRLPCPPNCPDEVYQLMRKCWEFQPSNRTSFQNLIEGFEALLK
Chain of Leucine-rich repeat serine/threonine-protein kinase 2 (Q5S007 whole entry, the tested form may be a part): as the sequence (Q5S007 whole entry, the tested form may be a part) above

Compound | Ki [1] [nM] | Ki [2] [nM] | IC50 (Janus Kinase (JAK)) [nM] | other results
COc1ccc(Cl)cc1-c1n[nH]cc1NC(=O)c1cnn2cccnc12 | 0.36 | 0.89 | 23 | 
O=C(Nc1c[nH]nc1-c1cc(I)ccc1OC(F)F)c1cnn2cccnc12 | 0.045 | 0.15 | 2.8 | CLint scaled at 1 µM [3]: 15 mL/min/kg; logD [4]: 3.4; inhibition at 1 h, 0.1 µM (LRRK2): 91%; efflux ratio at 3 h, 10 µM (in vitro [5]): 1; Papp A→B at 3 h, 10 µM (in vitro [6]): 15 ×10⁻⁶ cm/s
Cn1cc(NC(=O)c2cnn3cccnc23)c(-c2cc(Cl)ccc2CO)n1 | 8.6 | 45 |  | 
COc1cc(O)c(Cl)cc1-c1n[nH]cc1NC(=O)c1cnn2cccnc12 | 0.16 | 0.31 | 140 | 
COc1ccc(Cl)cc1-c1nn(C)cc1NC(=O)c1cncc2cccnc12 | 0.62 | 1.9 | 38 | 
CCn1c(C(=O)N(C2CC2)C2CC2)cc2c3c(ncn3C)c(Nc3cc(C)n(C)n3)nc21 [BMS-911543] |  | 360 | > 1000 | efflux ratio at 3 h, 10 µM (in vitro [5]): 0.94; Papp A→B at 3 h, 10 µM (in vitro [6]): 16 ×10⁻⁶ cm/s
COc1c(F)cc(Cl)cc1-c1n[nH]cc1NC(=O)c1cnn2cccnc12 | 1.2 | 9.2 |  | 
COc1ccc(Cl)c(F)c1-c1n[nH]cc1NC(=O)c1cnn2cccnc12 | 0.29 | 0.95 | 15 | 
COc1cc2[nH]ncc2cc1-c1n[nH]cc1NC(=O)c1cnn2cccnc12 |  |  | 370 | 
N#Cc1ccc(OC(F)F)c(-c2n[nH]cc2NC(=O)c2cnn3cccnc23)c1 | 0.27 | 0.9 | 22 | 
C#Cc1ccc2ncc(C(=O)Nc3c[nH]nc3-c3cc(Cl)ccc3OC(F)F)n2n1 | 0.078 |  | 13 | 
O=C(Nc1c[nH]nc1-c1cc(Cl)ccc1OC(F)(F)F)c1cnn2cccnc12 | 0.49 | 2.1 | 64 | 
COc1cc(F)c(Cl)cc1-c1n[nH]cc1NC(=O)c1cnn2cccnc12 | 0.79 | 2.2 | 42 | 
O=C(Nc1c[nH]nc1-c1cc2cn[nH]c2cc1OC(F)F)c1cnn2cccnc12 | 0.052 | 0.075 | 40 | CLint scaled at 1 µM [3]: 4.4 mL/min/kg; logD [4]: 1.6; inhibition at 1 h, 0.1 µM (LRRK2): 89%; efflux ratio at 3 h, 10 µM (in vitro [5]): 1; Papp A→B at 3 h, 10 µM (in vitro [6]): 1.6 ×10⁻⁶ cm/s
COc1ccc(Cl)cc1-c1nn(C)cc1NC(=O)c1cncc2cn(C)nc12 | 4.7 | 4.3 | 93 | 
Cc1ccc(OC(F)F)c(-c2n[nH]cc2NC(=O)c2cnn3cccnc23)c1 | 0.34 | 1.4 | 27 | 
Cn1ncc(NC(=O)c2cnn3cccnc23)c1-c1cc(Cl)ccc1Cl | 3.5 | 39 | > 1000 | 
Nc1nn2cccnc2c1C(=O)Nc1c[nH]nc1-c1cc(Cl)ccc1OC(F)F | 0.042 | 0.19 | 4 | CLint scaled at 1 µM [3]: 11 mL/min/kg; logD [4]: 3.3; inhibition at 1 h, 0.1 µM (LRRK2): 99%; efflux ratio at 3 h, 10 µM (in vitro [5]): 0.83; Papp A→B at 3 h, 10 µM (in vitro [6]): 15 ×10⁻⁶ cm/s
Cn1cc(NC(=O)c2cnn3cccnc23)c(-c2cc(Cl)ccc2C2CC2)n1 | 0.28 | 0.91 |  | 
O=C(Nc1c[nH]nc1-c1cc(Cl)ccc1OC(F)F)c1cncc2scnc12 | 0.17 | 0.51 | 9.2 | 
O=C(Nc1c[nH]nc1-c1cc(Cl)ccc1OC(F)F)c1cnc2cccnn12 | 0.071 | 0.21 | 5 | 
CSc1ccc(Cl)cc1-c1nn(C)cc1NC(=O)c1cnn2cccnc12 | 0.23 | 0.46 | 11 | 
O=C(Nc1c[nH]nc1-c1cc(Cl)ccc1SC(F)F)c1cnn2cccnc12 | 0.23 | 0.85 | 26 | 
O=C(Nc1c[nH]nc1-c1cc(Cl)ccc1OC(F)F)c1cncc2c[nH]nc12 | 0.49 | 0.56 | 18 | CLint scaled at 1 µM [3]: 15 mL/min/kg; logD [4]: 2.7; inhibition at 1 h, 0.1 µM (LRRK2): 52%; Ratio IC50 (Homo sapiens): 41; IC50 [7]: 79 nM; efflux ratio at 3 h, 10 µM (in vitro [5]): 1.9; Papp A→B at 3 h, 10 µM (in vitro [6]): 9.5 ×10⁻⁶ cm/s; IC50 [8]: 1.9 nM
C[C@@H](O)c1nc2cnc3[nH]ccc3c2n1[C@H]1CCCOC1 |  | 2.9 | 210 | efflux ratio at 3 h, 10 µM (in vitro [5]): 0.81; Papp A→B at 3 h, 10 µM (in vitro [6]): 6.2 ×10⁻⁶ cm/s

Compound | Ki [1] [nM] | Ki [2] [nM] | IC50 (Janus Kinase (JAK)) [nM] | other results
Cn1cc(NC(=O)c2cnn3cccnc23)c(-c2cc(Cl)ccc2O)n1 | 13 | 32 |  | 
COc1ccc(Cl)cc1-c1nn(C)cc1NC(=O)c1cncc2[nH]nnc12 | 730 | 370 |  | 
O=C(Nc1c[nH]nc1-c1cc(Cl)c(O)cc1OC(F)F)c1cnn2cccnc12 | 0.057 | 0.11 | 36 | 
O=C(Nc1c[nH]nc1-c1c(OC(F)F)ccc(Cl)c1F)c1cnn2cccnc12 | 0.16 | 0.56 | 14 | 
O=C(Nc1c[nH]nc1-c1cc(Cl)ccc1OC(F)F)c1cnn2cc(F)cnc12 | 2.4 | 7.8 |  | 
O=C(Nc1c[nH]nc1-c1ccccc1OC(F)F)c1cnn2cccnc12 | 0.86 | 3.3 |  | 
CC[C@@H]1CN(C(=O)NCC(F)(F)F)C[C@@H]1c1cnc2cnc3[nH]ccc3n12 [UPADACITINIB] |  |  |  | Papp A→B at 3 h, 10 µM (in vitro [6]): 3.6 ×10⁻⁶ cm/s
O=C(Nc1c[nH]nc1-c1cc(Br)ccc1OC(F)F)c1cnn2cccnc12 | 0.047 | 0.12 | 3.3 | CLint scaled at 1 µM [3]: 15 mL/min/kg; logD [4]: 3.2; inhibition at 1 h, 0.1 µM (LRRK2): 86%; efflux ratio at 3 h, 10 µM (in vitro [5]): 1.2; Papp A→B at 3 h, 10 µM (in vitro [6]): 17 ×10⁻⁶ cm/s
O=C(Nc1c[nH]nc1-c1cc(Cl)ccc1OC1CC1)c1cnn2cccnc12 | 0.45 | 1.3 | 21 | 
COc1ccc(Cl)cc1-c1nn(C)cc1NC(=O)c1cncc2c[nH]nc12 | 0.78 | 0.6 | 20 | 
COc1ccc(Cl)cc1-c1nc(C)sc1NC(=O)c1cnn2cccnc12 | 0.45 | 0.99 | 58 | 
COc1ccc(Cl)cc1-c1nn(C)cc1NC(=O)c1cncc2[nH]cnc12 | 2.6 | 5.7 |  | 
Cn1cc(NC(=O)c2cnn3cccnc23)c(-c2cc(Cl)ccc2CCO)n1 | 4 | 12 |  | 
CCOc1ccc(Cl)cc1-c1n[nH]cc1NC(=O)c1cnn2cccnc12 | 0.8 | 1.4 | 54 | 
Cc1nc(-c2cc(Cl)ccc2OC(F)F)c(NC(=O)c2cnn3cccnc23)[nH]1 | 1.1 | 3.9 |  | 
Cc1cc(Nc2nccc3nc(-c4c(Cl)cc(C#N)cc4Cl)[nH]c23)ncn1 |  | 23 | 1300 | efflux ratio at 3 h, 10 µM (in vitro [5]): 0.81; Papp A→B at 3 h, 10 µM (in vitro [6]): 16 ×10⁻⁶ cm/s
O=C(Nc1c[nH]nc1-c1cc(Cl)ccc1OC(F)F)c1snc2cccnc12 | 0.085 | 0.47 | 20 | 
Cc1ccn2ncc(C(=O)Nc3c[nH]nc3-c3cc(Cl)ccc3OC(F)F)c2n1 | 0.1 | 0.99 | 34 | 
O=C(Nc1c[nH]nc1-c1cc(Cl)ccc1OC(F)F)c1cncc2ccoc12 | 0.5 | 1.8 | 36 | 
CCc1ccc(OC(F)F)c(-c2n[nH]cc2NC(=O)c2cnn3cccnc23)c1 | 0.19 | 0.53 | 13 | 
CC(C)Oc1ccc(Cl)cc1-c1nn(C)cc1NC(=O)c1cnn2cccnc12 | 2 | 7.9 |  | 
Cn1cc(NC(=O)c2cnn3cccnc23)c(-c2cc(Cl)ccc2Cl)n1 |  |  |  | logD [4]: 2.9; Papp A→B at 3 h, 10 µM (in vitro [6]): 20 ×10⁻⁶ cm/s
O=C(Nc1c[nH]nc1-c1cc(F)ccc1OC(F)F)c1cnn2cccnc12 | 0.19 | 0.71 | 34 | 
O=C(Nc1c[nH]nc1-c1cc(Cl)ccc1OC(F)F)c1cnc2[nH]ccc2n1 | 0.96 | 5.6 | 42 | 
